Patent US4454290A, “Stevioside analogs” (Dynapol, priority 1981, dated 1984)
Where a name gives a salt, the structure may show the parent alone.

Columns and labels:
[1] = Taste test by a group of volunteers / sensory comparison; type: in vivo; details: for taste of the material: concentration not given; for Pm, potency compared to sucrose = 1, molar basis / Pw, potency compared to sucrose = 1, weight basis / Taste Character, Bitter / Taste Character, Other / Taste Character, Salty / Taste Character, Sour / Taste Character, Sweet / Taste Character, Sweet/bitter, other: 12 judgements, stevioside 500 ppm, Example 1 534 ppm, saccharin 330 ppm
Procedure: Steviolbioside, 3-sulfopropyl ester, potassium salt prepared in Part B. was dissolved in distilled water at a concentration of 0.2 wt% and tasted by a group of volunteers. […] The solution was diluted to 0.0534 wt% and retasted.

[2] = Stability test: anaerobic incubation with fresh rat cecal contents, 37° C.; type: in vitro ADME
Procedure: An important property of these stevioside analogs is their stability and resistance to conversion to steviol at the conditions of the mammalian gastrointestinal tract. […] At these conditions, no degradation to steviol occurs to a limit of detection of 0.13%.
Steviolbioside, 3-sulfopropyl ester, potassium salt prepared in Part B. was incubated anaerobically for three days at 37° C. with 5 wt% fresh rat cecal contents, at concentrations of 0.25, 0.5, and 1.0 mg/ml in sterile Krebs-Ringer 0.25M phosphate buffer (pH 7.4) containing 0.25 mg/ml dithiothreitol and 0.25 mg/ml α-D-glucose. […] No steviol (Rf =0.95; tR =31.3 min) was detected. After 3 days the bacterial cells were sedimented by centrifugation. The sediment was extracted (THF), as was the supernatant, after lyophilization. […] With a detection limit of […], as little as 0.03 and 0.13 percent degradation to steviol could have been detected for the sediment and supernatant fractions, respectively.

[3] = Use in comestibles (taste of sweetened beverages and gelatin); type: in vivo
Procedure: Based on the results of Part D, one can employ the compound of Part B as a sweetener for comestibles. In exemplary uses 0.08% by weight of the compound is dissolved in an unsweetened cola beverage, a like concentration of the compound is added to an unsweetened lemonade and to coffee. […] In two other cases, 0.04% by weight is added to coffee along with 0.02% by weight of saccharin and 3% by weight of sucrose, respectively. […] B.
Cups of coffee are prepared: To each is added 500 ppm by weight, basis solution, of one of each of the sweeteners prepared in Examples II-VIII. The coffees present a sweetened taste when sampled.
Gelatin, food color and fruit flavor are dissolved in water at levels suitable for forming a jelled food product. The solution is not sweet. The materials of Claims II-VIII are each added to separate samples in amounts of 600 ppm and the samples are cast into jelled products. The resulting gelatin products are sweet.

ATP synthetase = details: in cell mitochondria; Vignais 1966; cited from earlier work
[4] = Dorfman et al.; cited from earlier work
[5] = likelihood suggested by Wingard et al., 1980; cited from earlier work
[6] = Taste test by a group of volunteers / sensory comparison; type: in vivo; details: for Ip, sample intensity relative to 10% sucrose: mean value(2 Sm), 12 judgements, stevioside 500 ppm, Example 1 534 ppm, saccharin 330 ppm
[7] = Wingard et al., Experientia; cited from earlier work
[8] = Bridel et al., cited from earlier work
[9] = likelihood suggested by Wingard et al., 1980; cited from earlier work; remark: listed apart in the source
[10] = compared with material of Example I
[11] = 1000 ppm by weight in distilled water

Row | SMILES | taste of the material [1] | Pm, potency compared to sucrose = 1, molar basis [1] | Pw, potency compared to sucrose = 1, weight basis [1] | Taste Character, Bitter [1] | Taste Character, Other [1] | Taste Character, Salty [1] | Taste Character, Sour [1] | Taste Character, Sweet [1] | Taste Character, Sweet/bitter, other [1] | Ip, sample intensity relative to 10% sucrose [6] | further results
1 | C=C1C[C@@]23CC[C@H]4[C@@](C)(CCC[C@@]4(C)C(=O)OCCCCS(=O)(=O)O)[C@@H]2CC[C@]1(O[C@@H]1O[C@H](CO)[C@@H](O)[C@H](O)[C@H]1O[C@@H]1O[C@H](CO)[C@@H](O)[C@H](O)[C@H]1O)C3 [III, steviolbioside, 4-sulfobutyl ester, sodium salt] | sweet, like the material of Example I |  |  |  |  |  |  |  |  |  | 
2 | C=C1C[C@@]23CC[C@H]4[C@@](C)(CCC[C@@]4(C)C(=O)OCCCS(=O)(=O)O)[C@@H]2CC[C@]1(O[C@@H]1O[C@H](CO)[C@@H](O)[C@H](O)[C@H]1O[C@@H]1O[C@H](CO)[C@@H](O)[C@H](O)[C@H]1O)C3 [II, steviolbioside, 3-sulfopropyl ester, sodium salt] |  |  |  |  |  |  |  |  |  |  | stability properties evaluated as in Part C of Example I [2, 10]: same advantageous properties; taste properties evaluated as in Part D of Example I [1, 10]: same advantageous properties; use in comestibles evaluated as in Part E of Example I [3, 10]: same advantageous properties
3 | C=C1C[C@@]23CC[C@H]4[C@@](C)(CCC[C@@]4(C)C(=O)O)[C@@H]2CC[C@]1(O)C3 [steviol] |  |  |  |  |  |  |  |  |  |  | inhibition of ATP synthetase compared with atractyligenin (ATP synthetase): even more potent inhibitor of ATP synthetase; antiandrogenic effects [4]: antiandrogenic effects; absorption through the gastrointestinal tract wall [5]: completely absorbed
4 | C=C1C[C@@]23CC[C@H]4[C@@](C)(CCC[C@@]4(C)C(=O)OCCC(S(=O)(=O)O)S(=O)(=O)O)[C@@H]2CC[C@]1(O[C@@H]1O[C@H](CO)[C@@H](O)[C@H](O)[C@H]1O[C@@H]1O[C@H](CO)[C@@H](O)[C@H](O)[C@H]1O)C3 [VIII] |  |  |  |  |  |  |  |  |  |  | sweetness intensity equal to sucrose solution [1, 11]: 10-12 % sucrose; taste of solution [6, 11]: exceedingly sweet
5 | C=C1C[C@@]23CC[C@H]4[C@@](C)(CCC[C@@]4(C)C(=O)OCC(=O)O)[C@@H]2CC[C@]1(O[C@@H]1O[C@H](CO)[C@@H](O)[C@H](O)[C@H]1O[C@@H]1O[C@H](CO)[C@@H](O)[C@H](O)[C@H]1O)C3 [VII, steviolbioside, carboxymethyl ester, sodium salt] | sweet |  |  |  |  |  |  |  |  |  | 
6 | C=C1C[C@@]23CC[C@H]4[C@@](C)(CCC[C@@]4(C)C(=O)O[C@@H]4O[C@H](CO)[C@@H](O)[C@H](O)[C@H]4O)[C@@H]2CC[C@]1(O[C@@H]1O[C@H](CO)[C@@H](O)[C@H](O)[C@H]1O[C@@H]1O[C@H](CO)[C@@H](O)[C@H](O)[C@H]1O)C3 [Stevioside, stevioside] |  | 440(30) | 190(10) | 30(10) % | 8(5) % | 0(0) % | 0(0) % | 62(10) % | 62/38 | 0.94(0.06) | degradation to steviol [7]: essentially quantitative degradation to steviol; sweetness relative to sucrose [8]; 1931: about 300 times as sweet as sucrose; bitterness of taste [8]: substantial degree of bitterness; conversion to steviol in vivo [9]: largely converted to steviol in vivo
7 | C=C1C[C@@]23CC[C@H]4[C@@](C)(CCC[C@@]4(C)C(=O)OCCCS(=O)(=O)O)[C@@H]2CC[C@]1(O[C@@H]1O[C@H](CO)[C@@H](O)[C@H](O)[C@H]1O[C@@H]1O[C@H](CO)[C@@H](O)[C@H](O)[C@H]1O)C3 [Example I, Steviolbioside, 3-sulfopropyl ester, potassium salt] |  | 360(20) | 160(10) | 4(6) % | 4(4) % | 0(0) % | 0(0) % | 92(6) % | 92/8 | 0.84(0.06) | time within which all the initial ester was consumed ([2]; 5 wt% fresh rat cecal contents, 0.25, 0.5 and 1.0 mg/ml, pH 7.4, 37° C., anaerobic, TLC and HPLC): ≤ 24 h; steviol in THF extracts (HPLC) ([2]; after 3 days, sediment and supernatant extracts): none to be detectable; steviol detected (TLC and HPLC of incubation) ([2]; rat cecal contents, 37° C.): No steviol; degradation product formed ([2]; rat cecal contents, within 24 h, TLC and HPLC): apparently only the sulfopropyl ester of steviol; taste quality ([1]; 0.0534 wt%): very sucrose-like, having negligible off-flavors; sweetness equivalent ([1]; 0.0534 wt% in distilled water): 8-9 wt% sucrose; taste of solution ([1]; 0.2 wt% in distilled water): very intense sweet taste; taste compared with saccharin and stevioside ([1]; Table II): superior to the tastes of saccharin and stevioside itself; sweetness in comestibles, with co-sweetener ([3]; 0.04% by weight in coffee with 0.02% saccharin or 3% sucrose): sweetness is imparted; sweetness in comestibles ([3]; 0.08% by weight in unsweetened cola, unsweetened lemonade and coffee): sweetness is imparted
8 | C=C1C[C@@]23CC[C@H]4[C@@](C)(CCC[C@@]4(C)C(=O)OC(CCC(=O)O)C(=O)O)[C@@H]2CC[C@]1(O[C@@H]1O[C@H](CO)[C@@H](O)[C@H](O)[C@H]1O[C@@H]1O[C@H](CO)[C@@H](O)[C@H](O)[C@H]1O)C3 (some centres unmarked) [V] | sweet |  |  |  |  |  |  |  |  |  | 
9 | C=C1C[C@@]23CC[C@H]4[C@@](C)(CCC[C@@]4(C)C(=O)OCCC(N)C(=O)O)[C@@H]2CC[C@]1(O[C@@H]1O[C@H](CO)[C@@H](O)[C@H](O)[C@H]1O[C@@H]1O[C@H](CO)[C@@H](O)[C@H](O)[C@H]1O)C3 (some centres unmarked) [VI] | sweet and sucrose like |  |  |  |  |  |  |  |  |  | 
10 | O=C1NS(=O)(=O)c2ccccc21 [Saccharin, saccharin, reference compound] |  | 180(20) | 300(30) | 12(8) % | 3(2) % | 0(0) % | 0(0) % | 85(6) % | 85/15 | 0.98(0.09) | 
